Experimental data as given in patent US6479435B1, “Diaryl ethers and processes for their preparation and herbicidal and desiccant compositions containing them” (ISK Americas Incorporated, priority 1997, dated 2002).

What was measured:
Assay type in all cases: in vivo
[1] = tested on: Johnsongrass (Sorghum halepense, SORHA); test: Pre-emerge greenhouse herbicide test, phytotoxicity rating; conditions: Sorghum halepense, pre-emergence, 336 h, 14 days after application, rating scale 0-100; for pest or weed control at 125 g/ha: Rate 125 g al/ha; for pest or weed control at 500 g/ha: Rate 500 g al/ha
How it was run: (§1)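 Visual 0–100 injury rating (100 = all plants dead) taken 14 days after treatment. Rates of 125–1000 g ai/ha in acetone, 187 l/ha, were sprayed onto soil one day post-sowing; pots were surface-watered to incorporate, then bottom-watered.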

[2] = tested on: barnyardgrass (Echinochloa crusgalli, ECHCG); test: as above; conditions: Echinochloa crus-galli, pre-emergence, 336 h, 14 days after application, rating scale 0-100; for pest or weed control at 125 g/ha: Rate 125 g al/ha; for pest or weed control at 500 g/ha: Rate 500 g al/ha
How it was run: as §1

[3] = tested on: green foxtail (Setaria viridis, SETVI); test: as above; conditions: Setaria viridis, pre-emergence, 336 h, 14 days after application, rating scale 0-100; for pest or weed control at 125 g/ha: Rate 125 g al/ha; for pest or weed control at 500 g/ha: Rate 500 g al/ha
How it was run: as §1

[4] = tested on: ivyleaf morningglory (Ipomoea hederacea, IPOHE); test: as above; conditions: Ipomoea, pre-emergence, 336 h, 14 days after application, rating scale 0-100; for pest or weed control at 125 g/ha: Rate 125 g al/ha; for pest or weed control at 500 g/ha: Rate 500 g al/ha
How it was run: as §1

[5] = tested on: lambsquarters (Chenopodium album, CHEAL); test: as above; conditions: Chenopodium album, pre-emergence, 336 h, 14 days after application, rating scale 0-100; for pest or weed control at 125 g/ha: Rate 125 g al/ha; for pest or weed control at 500 g/ha: Rate 500 g al/ha
How it was run: as §1

[6] = tested on: large crabgrass (Digitaria sanguinalis, DIGSA); test: as above; conditions: Digitaria sanguinalis, pre-emergence, 336 h, 14 days after application, rating scale 0-100; for pest or weed control at 125 g/ha: Rate 125 g al/ha; for pest or weed control at 500 g/ha: Rate 500 g al/ha
How it was run: as §1

[7] = tested on: redroot pigweed (Amaranthus retroflexus, AMARE); test: as above; conditions: Amaranthus retroflexus, pre-emergence, 336 h, 14 days after application, rating scale 0-100; for pest or weed control at 125 g/ha: Rate 125 g al/ha; for pest or weed control at 500 g/ha: Rate 500 g al/ha
How it was run: as §1

[8] = tested on: sicklepod (Cassia obtusifolia, CASOB); test: as above; conditions: Senna obtusifolia, pre-emergence, 336 h, 14 days after application, rating scale 0-100; for pest or weed control at 125 g/ha: Rate 125 g al/ha; for pest or weed control at 500 g/ha: Rate 500 g al/ha
How it was run: as §1

[9] = tested on: velvetleaf (Abutilon theophrasti, ABUTH); test: as above; conditions: Abutilon theophrasti, pre-emergence, 336 h, 14 days after application, rating scale 0-100; for pest or weed control at 125 g/ha: Rate 125 g al/ha; for pest or weed control at 500 g/ha: Rate 500 g al/ha
How it was run: as §1

[10] = tested on: green foxtail (Setaria viridis, SETVI); test: Post-emerge greenhouse herbicide test, phytotoxicity rating; conditions: Setaria viridis, post-emergence, 336 h, 14 days after application, scale 0-100; for pest or weed control at 63 g/ha: rate 63 g ai/ha; for pest or weed control at 500 g/ha: rate 500 g ai/ha
How it was run: (§2)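 Scores use a 0 (no damage) to 100 (complete kill) scale, taken 14 days after a foliar spray. Acetone solutions with 0.25% v/v non-ionic surfactant were applied by track sprayer at 187 l/ha and 63-1000 g ai/ha to bottom-watered 2-3 leaf plants.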

[11] = tested on: ivyleaf morningglory (Ipomoea hederacea, IPOHE); test: as above; conditions: Ipomoea, post-emergence, 336 h, 14 days after application, scale 0-100; for pest or weed control at 63 g/ha: rate 63 g ai/ha; for pest or weed control at 500 g/ha: rate 500 g ai/ha
How it was run: as §2

[12] = tested on: lambsquarters (Chenopodium album, CHEAL); test: as above; conditions: Chenopodium album, post-emergence, 336 h, 14 days after application, scale 0-100; for pest or weed control at 63 g/ha: rate 63 g ai/ha; for pest or weed control at 500 g/ha: rate 500 g ai/ha
How it was run: as §2

[13] = tested on: large crabgrass (Digitaria sanguinalis, DIGSA); test: as above; conditions: Digitaria sanguinalis, post-emergence, 336 h, 14 days after application, scale 0-100; for pest or weed control at 63 g/ha: rate 63 g ai/ha; for pest or weed control at 500 g/ha: rate 500 g ai/ha
How it was run: as §2

[14] = tested on: redroot pigweed (Amaranthus retroflexus, AMARE); test: as above; conditions: Amaranthus retroflexus, post-emergence, 336 h, 14 days after application, scale 0-100; for pest or weed control at 63 g/ha: rate 63 g ai/ha; for pest or weed control at 500 g/ha: rate 500 g ai/ha
How it was run: as §2

[15] = tested on: sicklepod (Cassia obtusifolia, CASOB); test: as above; conditions: Senna obtusifolia, post-emergence, 336 h, 14 days after application, scale 0-100; for pest or weed control at 63 g/ha: rate 63 g ai/ha; for pest or weed control at 500 g/ha: rate 500 g ai/ha
How it was run: as §2

Compound | pest or weed control at 125 g/ha [1] [%] | pest or weed control at 500 g/ha [1] [%] | pest or weed control at 125 g/ha [2] [%] | pest or weed control at 500 g/ha [2] [%] | pest or weed control at 125 g/ha [3] [%] | pest or weed control at 500 g/ha [3] [%] | pest or weed control at 125 g/ha [4] [%] | pest or weed control at 500 g/ha [4] [%] | pest or weed control at 125 g/ha [5] [%] | pest or weed control at 500 g/ha [5] [%] | pest or weed control at 125 g/ha [6] [%] | pest or weed control at 500 g/ha [6] [%] | pest or weed control at 125 g/ha [7] [%] | pest or weed control at 500 g/ha [7] [%] | pest or weed control at 125 g/ha [8] [%] | pest or weed control at 500 g/ha [8] [%] | pest or weed control at 125 g/ha [9] [%] | pest or weed control at 500 g/ha [9] [%] | pest or weed control at 63 g/ha [10] [%] | pest or weed control at 500 g/ha [10] [%] | also measured
Nn1c(C(F)(F)F)cc(=O)n(-c2cc(Oc3nc(F)c(F)cc3F)c(Cl)cc2F)c1=O [Compound 9-6, 1-Amino-3-[4-chloro-2-fluoro-5-(3,5,6-trifluoro-2-pyridyloxy)phenyl]-6-trifluoromethyl-1,2,3,4-tetrahydropyrimidine-2,4-dione] | 90 | 90 | 90 | 100 | 100 | 100 | 90 | 95 | 100 | 100 | 100 | 100 | 100 | 100 | 90 | 100 | 100 | 100 | 20 | 100 | pest or weed control at 63 g/ha [11]: 100%; pest or weed control at 500 g/ha [11]: 100%; pest or weed control at 63 g/ha [12]: 100%; pest or weed control at 500 g/ha [12]: 100%; pest or weed control at 63 g/ha [13]: 90%; pest or weed control at 500 g/ha [13]: 100%; pest or weed control at 63 g/ha [14]: 100%; pest or weed control at 500 g/ha [14]: 100%; pest or weed control at 63 g/ha [15]: 40%; pest or weed control at 500 g/ha [15]: 100%
Cc1nsc(Oc2cc(-n3c(=O)cc(C(F)(F)F)n(N)c3=O)c(F)cc2Cl)c1[N+](=O)[O-] [Compound 9-14, 1-Amino-3-[4-Chloro-2-fluoro-5-(3-methyl-4-nitroisothiazol-5-yloxy)phenyl]-6-trifluoromethyl-1,2,3,4-tetrahydropyrimidine-2,4-dione] | 95 | 100 | 95 | 90 | 100 | 100 | 100 | 100 | 100 | 100 | 100 | 100 | 100 | 100 | 100 | 90 | 100 | 100 | 80 | 100 | pest or weed control at 63 g/ha [11]: 95%; pest or weed control at 500 g/ha [11]: 100%; pest or weed control at 63 g/ha [12]: 80%; pest or weed control at 500 g/ha [12]: 100%; pest or weed control at 63 g/ha [13]: 30%; pest or weed control at 500 g/ha [13]: 100%; pest or weed control at 63 g/ha [14]: 100%; pest or weed control at 500 g/ha [14]: 100%; pest or weed control at 63 g/ha [15]: 60%; pest or weed control at 500 g/ha [15]: 100%
Nn1c(C(F)(F)F)cc(=O)n(-c2cc(Oc3ccccc3)c(Cl)cc2F)c1=O [Compound 9-26, 1-Amino-3-[4-chloro-2-fluoro-5-phenoxyphenyl]-6-trifluoromethyl-1,2,3,4-tetrahydropyrimidine-2,4-dione] | 90 | 100 | 95 | 100 | 100 | 100 | 100 | 60 | 100 | 100 | 100 | 100 | 100 | 100 | 95 | 100 | 100 | 100 | 100 | 100 | pest or weed control at 63 g/ha [11]: 100%; pest or weed control at 500 g/ha [11]: 100%; pest or weed control at 63 g/ha [12]: 100%; pest or weed control at 500 g/ha [12]: 100%; pest or weed control at 63 g/ha [13]: 80%; pest or weed control at 500 g/ha [13]: 50%; pest or weed control at 63 g/ha [14]: 100%; pest or weed control at 500 g/ha [14]: 100%; pest or weed control at 63 g/ha [15]: 100%; pest or weed control at 500 g/ha [15]: 100%
